Laboratory results taken from patent publication US20050048462A1, “Markers and screens” (priority 2001, published 2005).

Legend:
Type in all cases: cell-based
[1] = system: GFP-tagged gelsolin in hippocampal neurons; experiment: Gelsolin accumulation in dendritic spines, receptor subtype specificity
Experimental: Imaging was performed at 37° C. in Tyrode's solution pH 7.3, with GFP-optimized filters (Chroma Technologies, Brattleboro, Vt.) and a MicroMax cooled CCD camera (Princeton Instruments, Trenton, N.J.) controlled by Metamorph software (Universal Imaging corporation, West Chester, Pa.). Cells were stimulated by addition of glutamate or NMDA (5 to 10 μM) for up to 30 minutes. In experiments where specific receptor subtypes were blocked, cells were preincubated for 15 minutes with corresponding antagonists.
In these experiments only 2.5 μM glutamate was used.

[2] = system: hippocampal neurons expressing GFP-tagged profilin I; experiment: Profilin I-GFP redistribution to spines after glutamate; settings: 10 μM glutamate; compared with profilin II
Experimental: (§1) To test this hypothesis we exposed hippocampal neurons expressing GFP-tagged profilin II or profilin I or unmodified GFP to 10 μM glutamate (FIG. 2). […] Glutamate treatment also produced a weaker shift of GFP tagged profilin I into spines (FIG. 2D) which, however, never approached the high levels seen for profilin II.

[3] = system: hippocampal neurons expressing unmodified GFP; experiment: Distribution of unmodified GFP in dendrites after glutamate (control construct); settings: 10 μM glutamate
Experimental: as §1

[4] = system: cultured hippocampal neurons; settings: glutamate 100 microM for 30 min
Text: This is relevant to stroke and epilepsy where hyperstimulation of receptors by released glutamate causes neuronal damage. Thus it appears that profilin II tagging occurs even after events that ultimately lead to apoptosis have been set in motion. In toxicity models, profilin II targeting could thus act as a marker for potentially damaged cells at times before cell death occurs.

[5] = treated with glutamate (2.5 μM) while blocking specific receptor subtypes
[6] = treated with agonists for specific receptor subtypes

CC(N)(C(=O)O)c1ccc(C(=O)O)cc1 (racemic) [MCPG, (R, S)-[…]-methyl-4-carboxyphenylglycine]
Accumulation (+) of gelsolin, number of cells [1, 5]: 3 | No change (−) of gelsolin, number of cells [1, 5]: 8

Cc1onc(O)c1CC(N)C(=O)O (centres unmarked) [AMPA, amino-3-hydroxy-5-methyl-4-isoxazolepropionic acid]
Accumulation (+) of gelsolin, number of cells [1, 6]: 0 | No change (−) of gelsolin, number of cells [1, 6]: 10

N[C@H](CCCP(=O)(O)O)C(=O)O [APV, D(−)-2-amino-5-phosphonopentanoic acid]
Accumulation (+) of gelsolin, number of cells [1, 5]: 1 | No change (−) of gelsolin, number of cells [1, 5]: 14

N[C@H](C(=O)O)c1cc(O)cc(O)c1 [DHPG, (S)-3,5-dihydroxyphenylglycine]
Accumulation (+) of gelsolin, number of cells [1, 6]: 4 | No change (−) of gelsolin, number of cells [1, 6]: 7

NS(=O)(=O)c1cccc2c1c([N+](=O)[O-])cc1[nH]c(=O)c(=O)[nH]c12 [NBQX, 1,2,3,4-Tetrahydro-6-nitro-2,3-dioxo-benzo[f]quinoxaline-7-sulfonamide]
Accumulation (+) of gelsolin, number of cells [1, 5]: 7 | No change (−) of gelsolin, number of cells [1, 5]: 6

CN[C@H](CC(=O)O)C(=O)O [NMDA, N-methyl-D-aspartate]
Accumulation (+) of gelsolin, number of cells [1, 6]: 11 | No change (−) of gelsolin, number of cells [1, 6]: 16

N[C@@H](CCC(=O)O)C(=O)O [glutamate]
Shift of GFP tagged profilin I into spines (in words) [2]: weaker shift | Distribution of unmodified GFP (in words) [3]: did not change the distribution | Number of cells in category − ([3]; GFP construct): 7 | Profilin II-GFP targeting despite degenerative changes (in words) [4]: still targeted to punctate sites within dendrites | Time to excitotoxic changes (loss of normal morphology, swelling of dendrites) [4]: ≤ 2 min
